In US6870154B1, “Capillary mixer with adjustable reaction chamber volume for mass spectrometry” (The University of Western Ontario, priority 2004, dated 2005):

Columns and labels:
[1] = demetalation of chlorophyll a in acidic methanol, kinetic mode ESI-MS; type: physicochemical; settings: HCl, quadratic fit
Experimental: (§1) For demetalation experiments, syringe 1 contained 40 μM chlorophyll in methanol and syringe 2 contained HCl in methanol at concentrations ranging from 30 to 100 mM. Both syringes were advanced at 30 μL/min for a total flow rate 60 μL/min in the reaction capillary. Ubiquitin refolding studies were carried out by having syringe 1 filled with 20 μM protein in 46% water, 50% methanol, and 4% acetic acid. Syringe 2 contained water. The two syringes were advanced at 20 and 50 μL/min, respectively, for a total flow rate of 70 μL/min. Final solution conditions after mixing ere 14.3% methanol and 1.1% acetic acid.
On-Line Kinetic ESI-MS Measurements. These measurements were carried out using a custom-built continuous-flow mixing apparatus that is based on two concentric capillaries (FIG. 1).
Instrument Performance in Kinetic Mode. […]
The apparatus depicted in FIG. 1 was used for monitoring the kinetics of chlorophyll demetalation in methanol solution for acid concentrations ranging from 15 to 50 mM. […] Nevertheless, it is clear that the temporal resolution of our novel mixing device exceeds that of other on-line ESI-MS techniques, which so far allowed rate constants up to ˜25 s^−1 to be measured.^16

[2] = demetalation of chlorophyll a in acidic methanol, optical stopped-flow spectroscopy; type: physicochemical; settings: 664 nm, quadratic fit
Experimental: (§2) Optical Stopped-Flow Measurements. These measurements were performed on an SFM-4 instrument (Bio-Logic, Claix, France), using an observation wavelength of 664 nm for monitoring the demetalation of chlorophyll. The two stepper motor-driven syringes used were advanced at 3.5 mL/s each, for an instrument dead time of 3.3 ms. All experiments were carried out at room temperature (22±1° C.).
Instrument Performance in Kinetic Mode. The demetalation of chlorophyll a in acidic solution is a well-characterized process, during which the central magnesium of the porphyrin is displaced by two protons.^40-42 This reaction represents a convenient test system, because it allows kinetic measurements by ESI-MS and by standard optical stopped-flow absorption spectroscopy. When studied under pseudo-first-order conditions, the rate constant of the reaction is given by kobs=k[H^+]^2. The intrinsic rate constant k in this expression is known to be strongly solvent-dependent.^41, 42

[3] = refolding of ubiquitin from the A state, kinetic mode ESI-MS
Experimental: as §1
The A state was populated by exposing the protein to 50% methanol and 4% acetic acid; refolding was initiated by mixing with an excess volume of water. ESI mass spectra of ubiquitin for different times after initiation of refolding are depicted in FIG. 7. […] This spectrum is practically indistinguishable from that of the protein prior to initiation of refolding (data not shown) and very similar to ubiquitin A state spectra that have been published previously.^14, 51 As refolding proceeds, the relative abundance of highly charged protein ions decreases and that of the […] and 7+ ions increases (FIGS. 7B,C). The final spectrum was recorded off-line 5 min after initiation of refolding in a manual mixing experiment.
The diffusion coefficient of ubiquitin can be estimated to be around D=1×10^−10 m^2/s.^52 According to condition 7, this implies that diffusion effects on the observed kinetics are negligible in an experimental time window up to τ≈2 s. The data can therefore be fitted based on eq 5 (solid lines in FIG. 8). C(τ) expressions for the 13+ and 12+ions were generated by assuming the model function C(t)=a1 exp(−kobst)+a0, whereas the analysis of the 8+ and 7+ ions was based on C(t)=b1(1−exp(−kobst))+b0. […] Instead, the kinetic profiles level off at ˜20% of their initial values. This effect can be attributed to a subpopulation of slow-folding ubiquitin molecules that contain non-native cis-proline isomers.^53 Proline isomerization, taking place on the order of tens of seconds, 54 is the rate-limiting step for the refolding of this subpopulation. […] Processes occurring on such a slow time scale are beyond the range accessible by our rapid mixing setup.

chymotrypsin = target: T1, chymotrypsin (Bos taurus, UniProt P00766); settings: previously reported, cited from earlier work
T1 construct: Chymotrypsin (a mixture of the α form and δ′ forms); purchased Sigma (St. Louis, Mo.)

α-chymotrypsin = target: T2, α-chymotrypsin (Bos taurus, UniProt P00766); assay: pre-steady-state hydrolysis of p-NPA by chymotrypsin, on-line kinetic ESI-MS; type: biochemical; settings: fit of kobs to Equation 12, pH 7.8, 20% methanol, 22 °C
T2 construct: Peaks labeled with α and δ′ correspond to α- and δ′-chymotrypsin, respectively; purchased Sigma (St. Louis, Mo.)
Source text: (§3) Chymotrypsin is a member of the serine protease family. ^86-88 Ser195 represents the reactive nucleophile in the active site of this enzyme. Although the physiological role of chymotrypsin is to serve as an endopeptidase, it also catalyzes the hydrolysis of esters, including numerous synthetic substrate analogs. […] Subsequently, Ser195 forms a covalent bond with the carbonyl carbon of the substrate, thus releasing the first hydrolysis product P1. The rate constant of this acylation step is denoted as k2. The subsequent de-acylation has a rate constant of k3, and it leads to regeneration of the free enzyme by hydrolysis of the Ser195-ester bond, through release of the second hydrolysis product P2. For conditions where S is present in large excess, it can be shown that the concentration of P1 as a function of time t in the pre-steady-state regime is given by Equation 9^58, 59: [P1](t)=C1(1−exp(−kobst))+C2t (9) and the concentration-time profile of the covalent EP2 complex can be expressed as Equation 10: [EP2](t)=C3(1−exp(−kobst)) (10). Consequently, the sum of the concentrations of free enzyme and ES complex are given by Equation 11: ([Efree]+[ES](t)=C4exp(−kobst)+C5 (11). C1, . . . , C5 in these expressions are constants, and kobs is given by Equation 12: [formula] where [S] is the substrate concentration. Measurements of kobs as a function of substrate concentration allow the determination of the parameters k2, k3, and Kd in Scheme 8.
(§4) On-line kinetic ESI-MS experiments. ESI-MS-based kinetic experiments were carried out on a custom built continuous flow mixing apparatus described in FIG. 2. Briefly, this setup consists of two concentric capillaries, that are connected to sample injection syringes. Reactions are initiated by mixing of two solutions at the outlet of the inner capillary. The reaction time is determined by the solution flow rate, and by the distance between the mixing region and the end of the outer capillary. For experiments in kinetic mode, the inner capillary is steadily withdrawn from the end of the outer capillary, while the mass spectrometer is set to monitor selected m/z values, corresponding to specific solution-phase species, as a function of time. In spectral mode, the inner capillary is set at specific distances from the end of the outer capillary, such that entire mass spectra can be obtained for selected reaction times.
(§5) For the experiments described here, both reactant solutions were introduced into the apparatus at 20 μL/min using syringe pumps (Harvard Apparatus, Saint Laurent, QC) for a total flow rate of 40 μL/min after the mixer. […]

δ′-chymotrypsin = target: T3, δ′-chymotrypsin (Bos taurus, UniProt P00766); assay: as above; type: biochemical; settings: fit of kobs to Equation 12, pH 7.8, 20% methanol, 22 °C
T3 construct: Peaks labeled with α and δ′ correspond to α- and δ′-chymotrypsin, respectively; purchased Sigma (St. Louis, Mo.)
Source text: as §3, §4, §5

[4] = target: T4, chymotrypsin (a mixture of the α form and δ′ forms) (Bos taurus, UniProt P00766); assay: p-NPA hydrolysis by optical stopped-flow spectroscopy (release of p-NP); type: biochemical; settings: weighted average of α and δ′-chymotrypsin
T4 construct: Chymotrypsin (a mixture of the α form and δ′ forms); purchased Sigma (St. Louis, Mo.)
Experimental: as §2
Enzymatic reactions. The limited solubility of p-NPA in purely aqueous solutions necessitated the use of 20% (v/v) methanol in the reaction mixture. […] These solutions were mixed in a 1:1 ratio with 32 μM chymotrypsin in water for a final pH of 7.8, which corresponds to the pH optimum of the enzyme. […] Experiments on bradykinin were carried out in an analogous manner, but in purely aqueous solution, and by using 20% (v/v) acetic acid in water as makeup solvent. […] Substrate concentrations given below represent the values in the reaction mixture, i.e., after the first mixing step. […]
Measurements of kobs as a function of substrate concentration were also carried out by stopped-flow spectroscopy, using the release of the yellow p-NP moiety as optical probe. In contrast to the ESI-MS experiments, these optical studies cannot discern the two forms of the enzyme, and therefore the measured data represent a weighted average of the substrate conversion caused by a and δ′-chymotrypsin. […]

[5] = much higher buffer concentrations
[6] = read-out: dissociation constant Kd

For `C=Cc1c(C)c2cc3nc(c4c5[n-]c(cc6nc(cc1[n-]2)C(C)=C6CC)c(C)c5C(=O)[C@@H]4C(=O)OC)[C@@H](CCC(=O)OC/C=C(\C)CCC[C@H](C)CCC[C@H](C)CCCC(C)C)[C@@H]3C.[Mg+2]` [chlorophyll a, Chlorophyll a], the “intrinsic rate constant k of demetalation (kobs=k[H+]^2)” value [1] was 0.048±0.002 mM^−2s^−1 and the “intrinsic rate constant k of demetalation” value [2] was 0.050±0.001 mM^−2 s^−1.

ubiquitin gave a refolding kobs ([3]; 8+ ion, 14.3% methanol, 1.1% acetic acid) of 5.3 s⁻¹, a refolding kobs ([3]; 9+ ion) of 5.3 s⁻¹ and a refolding kobs ([3]; 12+ ion) of 5.2 s⁻¹. The refolding kobs ([3]; 13+ ion) was 5.1 s⁻¹ and the “refolding kobs, average value” ([3]; average of the four fits) was 5.2 s⁻¹.

In the case of `CC(=O)Oc1ccc([N+](=O)[O-])cc1` [p-NPA, para-nitrophenyl acetate], the Kd (chymotrypsin; [5]) is listed as 7 mM, the k2 (chymotrypsin; [5]) is listed as 3 s⁻¹ and the k3 (chymotrypsin) is listed as 0.03 s⁻¹. For the same compound, the “k2 (acylation rate constant)” value (α-chymotrypsin) was 3.2 ± 0.3 s⁻¹, the Kd (α-chymotrypsin; [6]) was 1.4 ± 0.2 mM and the “k2 (acylation rate constant)” value (δ′-chymotrypsin) was 3.7 ± 0.3 s⁻¹. The Kd (δ′-chymotrypsin; [6]) was 1.7 ± 0.2 mM, the Kd [4] was 1.6 ± 0.1 mM and the k2 [4] was 3.6 ± 0.2 s⁻¹.
